Measurements as given in US20090234122A1, “CYANINE DYE AND OPTICAL RECORDING MEDIUM” (priority 2005, published 2009).

Columns and labels:
Format in all cases: physicochemical
[1] = Lightfastness of cyanine dye thin membranes under xenon lamp irradiation; conditions: thin membrane on glass, 180 W/m^2, 5.5 hours
Description: The solution was in conventional manner dropped to homogeneity over the surface of either side of a polished glass substrate, 5 cm×5 cm, followed by rotating the glass substrate at a rate of 1,000 rpm/min for one minute to homogeneously apply the solution over the substrate and then drying the substrate by blowing hot air or cold air in this order to form a thin membrane of any one of the cyanine dyes of the present invention.
The cyanine dyes were measured for transmittance (T0) at the wavelengths of their absorption maxima (about 450 nm), while a 7.5 W xenon lamp was fixed apart from the glass substrate at a prescribed intervals and irradiated therewith (irradiated energy of 180 W/m^2 when measured on the surface of the substrate) for 5.5 hours while blowing cold air to the substrate. Thereafter, the substrates were immediately measured for transmittance (T) at the wavelengths of absorption maxima of the cyanine dyes and the residual percentages (%) thereof were calculated by assigning the obtained transmittances T and T0 the equation 1. In parallel, similarly as in the above, thin membranes, as controls 1 to 4, formed with any one of the compounds represented by Chemical Formulae 33, 37, 40 and 41; thin membranes, as controls 5 to 8, formed with any one of the compounds represented by Chemical Formulae 33, 37, 40 and 41 in combination with the azo metal complex presented by Chemical Formula 34 as a light resistant improver; and thin membranes, as controls 9 to 10, formed with any one of the compounds represented by Chemical Formulae 42 and 43, and these thin membranes were similarly treated as in the above, and measured for transmittances T and T0 at wavelengths of their absorption maxima for use as controls.

[2] = Decomposition point on DSC analysis; conditions: onset temperature of exothermic peak induced by decomposition
Text: The decomposition points of organic dye compounds such as cyanine dyes can be determined on, for example, commonly used differential scanning calorimetric analysis (abbreviated as “DSC”, hereinafter).
The melting point means a peak top temperature of endothermic peak during temperature increase on DSC analysis, while the decomposition point means an onset temperature of exothermic peak induced by decomposition during temperature increase on DSC analysis. These are applicable to the following measurements.

[3] = Solubility in organic solvents at 20° C.; conditions: N,N-dimethylformamide, methanol, TFP, methylethylketone, acetonitrile, chloroform
[4] = transmittance at absorption maximum (about 450 nm), lightfastness improver: Non
[5] = in combination with lightfastness improver Chemical Formula 34 (azo metal complex)

| Structure (SMILES) | Residual percentage (%) of dye [1, 4] [%] | decomposition point [2] | solubility in organic solvents [3] | Residual percentage (%) of dye [1, 5] [%] |
| --- | --- | --- | --- | --- |
| CN1C(=CC2=[N+](C)c3ccccc3C2(C)Cc2ccccc2)C(C)(C)c2ccccc21 (stereo not shown) [Chemical Formula 20] | 99.1 | ~273 °C | satisfactory solubilities with no actual hindrance | – |
| CCN1C(=CC2=[N+](CC)c3ccccc3C2(C)Cc2ccccc2)C(C)(Cc2ccccc2)c2ccccc21 (stereo not shown) [Chemical Formula 33] | 29.4 | around 212 °C | – | 89.9 |
| CN1C(=CC2=[N+](C)c3ccccc3C2(C)Cc2ccccc2)C(C)(C)c2ccccc21 (stereo not shown) [Chemical Formula 37] | 31.2 | around 238 °C | – | 90.3 |
| CN1C(=CC2=[N+](C)c3ccccc3C23CCCCC3)C2(CCCCC2)c2ccccc21 [Chemical Formula 40] | 35.6 | around 227 °C | – | 91.5 |
| CN1C(=CC2=[N+](C)c3ccccc3C23CCCCC3)C(C)(C)c2ccccc21 [Chemical Formula 41] | 33.8 | around 240 °C | – | 93.8 |
| CN1C(=CC2=[N+](C)c3ccccc3C2(C)C)C(C)(C)c2ccccc21 [Chemical Formula 42] | 15.3 | – | – | – |
